Literature values, collected in Sander's compilation of Henry's law constants.
Values joined by “and” are separate entries in the source; they are usually repeats but may differ in a detail not shown here. Equal entries are not always repeated.

Experiment: Henry solubility constant Hcp at 298.15 K (mol/(m3 Pa))
Details: cited value
[1] = reference: Burkholder et al. (2019)
[2] = reference: Barcelo and Hennion (1997)
[3] = reference: Burkholder et al. (2015)
[4] = reference: Sander et al. (2006)
[5] = reference: Sander et al. (2011)
[6] = reference: Hine and Weimar (1965)
[7] = reference: Fogg and Sangster (2003)
[8] = reference: Gaffney and Senum (1984)

Row | SMILES | Henry solubility constant Hcp (reference: Brockbank (2013)) | Henry solubility constant Hcp [1] | Henry solubility constant Hcp [3] | also measured
1 | BrCBr [dibromomethane] | 0.012 | 0.012 | – | –
2 | CCCCOC(=O)c1ccccc1C(=O)OCCCC [dibutyl phthalate] | 11 | – | – | Henry solubility constant Hcp (reference: McCarty (1980)): 0.16
3 | CCCCNCCCC [dibutylamine] | 0.13 | – | – | –
4 | COc1c(Cl)ccc(Cl)c1C(=O)O [dicamba] | – | – | – | Henry solubility constant Hcp [2]: 82
5 | ClNCl [dichloramine] | – | 0.29 | 0.29 | Henry solubility constant Hcp [4]: 0.29; Henry solubility constant Hcp [5]: 0.29
6 | FC(F)(Cl)Cl [dichlorodifluoromethane] | 3.1e-05 | 3e-05 | 3e-05 | Henry solubility constant Hcp (reference: Goldstein (1982)): 3.5e-06; Henry solubility constant Hcp [4]: 3e-05; Henry solubility constant Hcp [5]: 3e-05
7 | O=C(O)C(Cl)Cl [dichloroethanoic acid] | – | 1200 | 1200 | Henry solubility constant Hcp [5]: 1200
8 | ClCCl [dichloromethane] | 0.0037 | 0.0039 | 0.0039 | Henry solubility constant Hcp (reference: Dilling (1977)): 0.0037; Henry solubility constant Hcp (reference: Dilling et al. (1975)): 0.0037; Henry solubility constant Hcp (reference: Goldstein (1982)): 0.0031; Henry solubility constant Hcp (reference: Harrison et al. (1993)): 0.0042 and 0.0034; Henry solubility constant Hcp [4]: 0.0036; Henry solubility constant Hcp [5]: 0.0036
9 | ClC1=C(Cl)[C@]2(Cl)[C@@H]3[C@@H]4C[C@@H]([C@H]5O[C@@H]45)[C@@H]3[C@@]1(Cl)C2(Cl)Cl [dieldrin] | – | – | – | Henry solubility constant Hcp [2]: 0.0088
10 | CCSSCC [diethyl disulfide] | – | 0.0037 | 0.0037 | –
11 | CCOCC [diethyl ether] | 0.0099 | 0.0099 | 0.02 | –
12 | CCSCC [diethyl sulfide] | – | 0.0035 | 0.0035 | –
13 | CCCCOCCOCCOCCCC [diethylene glycol dibutyl ether] | 2.5 | – | – | –
14 | O=C(NC(=O)c1c(F)cccc1F)Nc1ccc(Cl)cc1 [diflubenzuron] | – | – | – | Henry solubility constant Hcp [2]: 21
15 | FOF [difluorine monoxide] | – | – | – | Henry solubility constant Hcp (reference: Schäfer and Lax (1962)): 2.9e-05
16 | CCCCCCOC(=O)c1ccccc1C(=O)OCCCCCC [dihexyl phthalate] | 8.3 | – | – | –
17 | CC(C)OC(C)C [diisopropyl ether] | 0.0045 | – | – | –
18 | COC[C@H](C)N(C(=O)CCl)c1c(C)csc1C [dimethenamid-p] | – | – | – | Henry solubility constant Hcp (reference: MacBean (2012b)): 2100
19 | COCOC [dimethoxymethane] | 0.061 | – | – | Henry solubility constant Hcp (reference: Pierotti et al. (1959)): 0.057
20 | COC [dimethyl ether] | – | – | – | Henry solubility constant Hcp [6]: 0.0098
21 | COC(=O)c1ccccc1C(=O)OC [dimethyl phthalate] | 51 | – | – | Henry solubility constant Hcp (reference: Goldstein (1982)): 29 and 30; Henry solubility constant Hcp (reference: McCarty (1980)): 23
22 | CNC [dimethylamine] | 0.62 | 0.55 | 0.55 | –
23 | [CH3][Hg][CH3] [dimethylmercury] | – | – | – | Henry solubility constant Hcp (reference: Abraham et al. (2008)): 0.0021; Henry solubility constant Hcp (reference: WHO (1990)): 0.0013

Row | SMILES | Henry solubility constant Hcp (reference: Brockbank (2013)) | Henry solubility constant Hcp [1] | Henry solubility constant Hcp [3] | also measured
24 | CS(C)=O [dimethylsulfoxide] | 8000 | 980 | 980 | Henry solubility constant Hcp (reference: Betterton (1992)): 14; Henry solubility constant Hcp [4]: 980; Henry solubility constant Hcp [5]: 980
25 | FN(F)N(F)F [dinitrogen tetrafluoride] | – | 8.4e-06 | 8.4e-06 | Henry solubility constant Hcp [5]: 8.4e-06
26 | CC(C)(C)c1cc([N+](=O)[O-])cc([N+](=O)[O-])c1O [dinoterb] | – | – | – | Henry solubility constant Hcp [2]: 1.7
27 | c1ccc(Oc2ccccc2)cc1 [diphenyl ether] | 0.019 | – | – | –
28 | c1ccc(Nc2ccccc2)cc1 [diphenylamine] | – | – | – | Henry solubility constant Hcp (reference: Howard et al. (1991)): 3.5
29 | c1ccc(Cc2ccccc2)cc1 [diphenylmethane] | – | – | – | Henry solubility constant Hcp (reference: Mackay et al. (1992b)): 1
30 | CCCOCCC [dipropyl ether] | 0.0029 | – | – | –
31 | CCCOC(=O)c1ccccc1C(=O)OCCC [dipropyl phthalate] | 22 | – | – | –
32 | CCCNCCC [dipropylamine] | 0.21 | 0.2 | 0.2 | –
33 | CCOP(=S)(OCC)SCCSCC [disulfoton] | – | – | – | Henry solubility constant Hcp [2]: 0.045; Henry solubility constant Hcp (reference: Muir et al. (2004)): 11
34 | CN(C)C(=O)Nc1ccc(Cl)c(Cl)c1 [diuron] | – | – | – | Henry solubility constant Hcp [2]: 8.2
35 | FC(F)(F)C(F)(F)C(F)(F)C(F)(F)C(F)(F)F [dodecafluoropentane] | 4.6e-08 | – | – | –
36 | CCN [ethanamine] | 0.84 | 0.8 | 0.8 | –
37 | CC#N [ethanenitrile] | 0.49 | 0.52 | 0.52 | Henry solubility constant Hcp (reference: Arijs and Brasseur (1986)): 0.47; Henry solubility constant Hcp [7]: 0.5; Henry solubility constant Hcp [8]: 0.29; Henry solubility constant Hcp [6]: 0.29; Henry solubility constant Hcp (reference: Plyasunov et al. (2006)): 0.38; Henry solubility constant Hcp [4]: 0.52; Henry solubility constant Hcp [5]: 0.52
38 | CCS [ethanethiol] | – | 0.0028 | 0.0028 | Henry solubility constant Hcp [4]: 0.0028; Henry solubility constant Hcp [5]: 0.0028
39 | CC(=O)OO [ethanoic peroxyacid] | – | 8.3 | 8.3 | Henry solubility constant Hcp [5]: 8.3
40 | CCO [ethanol] | 1.8 | 1.9 | 1.9 | Henry solubility constant Hcp (reference: Dohnal et al. (2006)): 1.8; Henry solubility constant Hcp (reference: Dubowski (1979)): 1.9; Henry solubility constant Hcp [7]: 1.7; Henry solubility constant Hcp [8]: 2; Henry solubility constant Hcp [4]: 2; Henry solubility constant Hcp [5]: 1.9; Henry solubility constant Hcp (reference: Schaffer and Daubert (1969)): 1.5; Henry solubility constant Hcp (reference: Timmermans (1960)): 1.6; Henry solubility constant Hcp (reference: Warneck (2006)): 1.9
41 | C=C [ethene] | – | 5.9e-05 | 5.9e-05 | Henry solubility constant Hcp (reference: Deno and Berkheimer (1960)): 4.7e-05; Henry solubility constant Hcp (reference: Hayduk (1994)): 4.7e-05; Henry solubility constant Hcp [4]: 5.9e-05; Henry solubility constant Hcp [5]: 5.9e-05
42 | C=COC(C)=O [ethenyl ethanoate] | 0.02 | 0.02 | 0.02 | Henry solubility constant Hcp (reference: Goldstein (1982)): 0.017
43 | C=Cc1ccccc1 [ethenylbenzene] | 0.0036 | – | – | Henry solubility constant Hcp [7]: 0.0038; Henry solubility constant Hcp (reference: Goldstein (1982)): 0.0038
44 | CCOP(=S)(OCC)SCSP(=S)(OCC)OCC [ethion] | – | – | – | Henry solubility constant Hcp [2]: 0.31
45 | CCOC1Oc2ccc(OS(C)(=O)=O)cc2C1(C)C (stereo unspecified) [ethofumesate] | – | – | – | Henry solubility constant Hcp [2]: 45
46 | CCOC(=O)C(C)(C)C [ethyl 2,2-dimethylpropanoate] | 0.0064 | – | – | –

Row | SMILES | Henry solubility constant Hcp (reference: Brockbank (2013)) | Henry solubility constant Hcp [1] | Henry solubility constant Hcp [3] | also measured
47 | CCOC(=O)C(C)C [ethyl 2-methylpropanoate] | 0.015 | – | – | –
48 | CCOC(=O)CC(C)C [ethyl 3-methylbutanoate] | 0.014 | – | – | –
49 | CCOC(=O)c1ccccc1 [ethyl benzoate] | 0.17 | – | – | –
50 | CCOC(=O)CCl [ethyl chloroethanoate] | 0.26 | – | – | –
51 | CCOO [ethyl hydroperoxide] | 3.3 | 3.3 | 3.3 | Henry solubility constant Hcp [5]: 3.3
52 | CCOC=O [ethyl methanoate] | 0.033 | 0.034 | 0.034 | Henry solubility constant Hcp [5]: 0.034
53 | CCSC [ethyl methyl sulfide] | – | 0.0042 | 0.0042 | –
54 | CCCCC(=O)OCC [ethyl pentanoate] | – | – | – | Henry solubility constant Hcp (reference: Meynier et al. (2003)): 0.027
55 | CCOC(=O)CC [ethyl propanoate] | 0.038 | – | – | –
56 | C=CC(=O)OCC [ethyl propenoate] | 0.039 | – | – | –
57 | CCCOCC [ethyl propyl ether] | – | – | – | Henry solubility constant Hcp (reference: Howard and Meylan (1997)): 0.0077
58 | CCOC(C)(C)C [ethyl tert-butyl ether] | 0.0072 | – | – | –
59 | CCc1ccccc1 [ethylbenzene] | 0.0013 | – | – | Henry solubility constant Hcp [7]: 0.0014; Henry solubility constant Hcp (reference: Goldstein (1982)): 0.0016
60 | CCC1CCCCC1 [ethylcyclohexane] | 2.1e-05 | – | – | –
61 | CC1(C(=O)Nc2ccc(O)c(Cl)c2Cl)CCCCC1 [fenhexamid] | – | – | – | Henry solubility constant Hcp (reference: MacBean (2012b)): 200000
62 | COP(=S)(OC)Oc1ccc([N+](=O)[O-])c(C)c1 [fenitrothion] | – | – | – | Henry solubility constant Hcp [2]: 2.7
63 | CC(Cc1ccc(C(C)(C)C)cc1)CN1C[C@@H](C)O[C@@H](C)C1 (stereo partly specified) [fenpropimorph] | – | – | – | Henry solubility constant Hcp [2]: 0.062
64 | COP(=S)(OC)Oc1ccc(SC)c(C)c1 [fenthion] | – | – | – | Henry solubility constant Hcp [2]: 0.45
65 | CN(C)C(=O)Nc1ccccc1 [fenuron] | – | – | – | Henry solubility constant Hcp [2]: 36
66 | CN(C)C(=O)Nc1cccc(C(F)(F)F)c1 [fluometuron] | – | – | – | Henry solubility constant Hcp (reference: HSDB (2015)): 3800
67 | Fc1ccccc1 [fluorobenzene] | 0.0015 | – | – | –
68 | O=C(O)CF [fluoroethanoic acid] | – | 800 | 800 | Henry solubility constant Hcp [5]: 800
